Results as given in patent publication US10662225B2, “Backbone cyclized inhibitory peptides of myeloid differentiation factor 88 (MyD88)” (Yissum Research Development Company of the Hebrew …, priority 2016, dated 2020).
Numbered stars: 1 amine (or outer) side, 2 acyl side, 3 side chain; on linkers, the order of the positions; unused ones are H or OH. Bridge positions count the residues as written; N and C are the ends. Square brackets hold non-standard residues; d marks the D form. Ends that are not written are not given here. Peptide text beside a SMILES is read from it. * marks the point of attachment. Myristoyl = CCCCCCCCCCCCCC(=O)*; CO = O=C([*:1])[*:2]; Nlys = NCCCCNCC(=O)O

Key:
MyD88 dimerization = target: T1, MyD88 dimerization (Homo sapiens, UniProt Q99836); assay: Co-immunoprecipitation of Flag-MyD88 with HA-MyD88 in HEK293 cells; type: cell-based; conditions: HEK293, IL-1 stimulation; 4×4MyDI at 20, 2, 0.2 μM; Myr-4×4MyDI at 0.2 or 2000 nM
T1 construct: constructs encoding HA-tagged full length MyD88 and Flag-tagged full length MyD88; expressed in transfected cells; host or cells: HEK293
Experimental: FIG. 10. 4×4MyDI blocks MyD88 dimerization. HEK293 cells were transfected with two plasmids, one encoding HA-MyD88 and the other encoding FLAG-MyD88 and after 48 hours the cells were either untreated (cont) or treated with 20 μM of the linear MyDI peptide, the scrambled version of the linear MyDI peptide (SEQ ID NO: 5,), or the 4×4MyDI at 20, 2, or 0.2 μM. After 3 h of treatment, cells were stimulated with recombinant human IL-1 (20 ng/ml) for 30 min and then lysed. Whole cell lysates (WCL) were immunoprecipitated with anti-HA beads (Thermo-Scientific) for 30 min and proteins were eluted with glycine Ph 2.0, neutralized, and loaded on an acrylamide gel for analysis. Proteins were transferred to nitrocellulose and the amount of Flag-MyD88 that co-precipitated with HA-MyD88 was detected by immunoblotting (IB) with anti-Flag antibody.
FIGS. 14A and 14B. […] Proteins were transferred to nitrocellulose and the amount of FLAG-MyD88 that co-precipitated with HA-MyD88 was detected by immunoblotting (IB) with anti-FLAG antibody. […] Percent inhibition of co-immunoprecipitation was calculated by comparing densitometry of bands in the treated lanes to control. […]
TLR and IL-1 receptor signaling proceeds through a multimeric protein signaling complex (the “Myddosome”) that is initiated by MyD88 homodimerization. […] Immunoprecipitated protein was eluted and analyzed by immunoblot using an antibody to Flag. […]

NFkB activation = assay: NFkB-luciferase reporter in RAW 264.7 macrophages stimulated with LPS; type: cell-based, mouse; conditions: RAW 264.7 NFkB-luc, 4 hours
Experimental: FIG. 13. 4×4MyDI and Myr4×4MyDI block NFkB induction in response to LPS stimulation of RAW 264.7 NFkB-luc cells. RAW 264.7 murine macrophages were transfected with an NFkB-luciferase reporter gene and stimulated with LPS in the absence or presence of increasing concentrations of the inhibitors. After 4 hours cells were lysed and luminescence was recorded using a Tecan plate reader. BG denotes background.
In this assay the mouse macrophage RAW264.7 cell line is transfected with an NFkB-luciferase reporter construct and then cells are stimulated by exposure to bacterial LPS and light emission is measured after addition of luciferase substrate.

[1] = tested on: OCI-LY3 (MyD88 L265P) cells; assay: Proliferation of lymphoma cells (Promega CellTiter viability assay); type: cell-based, human; conditions: 48 h; compared with OCI-LY19 (MyD88 WT)
Experimental: FIGS. 18A and 18B. 4×4MyDI and Myr-4×4MyDI block proliferation of Ly3 lymphoma cells that carry the L265P oncogenic mutation in MyD88. Cell lines OCI-LY3 (MyD88^L265P) and OCI-LY19 (MyD88^WT) were grown in RPMI supplemented with 10% FCS. Cells were counted and plated at identical concentrations in triplicate wells of 96 well plates and decreasing concentrations of 4×4MyDI […], or Myr-4×4MyDI (19B), was added to the wells. After 48 h cell viability was tested using the Promega CellTiter viability assay according to the manufacturer's instructions. Percent inhibition was calculated as [(1-OD of well with inhibitor/OD of well without inhibitor)*1001. Negative values in A represent enhanced growth in the presence of the inhibitor.
Genomic DNA was prepared from the human lymphoma cell lines OCI-LY3 (MyD88^L265P) and OCI-LY19 (MyD88^WT) to confirm the presence of the activating L265P mutation in the OCI-Ly3 cells (and the WT sequence in the OCI-Ly19 cells). The MyD88 region was amplified using the forward and reverse primers GGGATATGCTGAACTAAGTTGCCAC (SEQ ID NO: 7) and GACGTGTCTGTGAAGTTGGCATCTC (SEQ ID NO: 8), respectively, as described in Xu, L. et al Blood (2013) 121(11): 2051-2058. The PCR product was sequenced to confirm the mutation.
The cell lines were incubated alone or with increasing concentrations of the 4×4MyDI. […]

MyD88 = MyD88 (Homo sapiens, UniProt Q99836); assay: Comparison of linear 7-mer peptide with and without N-terminal myristoyl group (assay not specified); conditions: versus linear MyD88 inhibitor 7-mer peptide
Source text: The importance of additional moieties to enhance cell penetration is further evaluated. […] Therefore, backbone cyclic peptides with addition of a myristoyl group or other moieties designed to enhance cell penetration are also synthesized and tested for binding, inhibition, stability and permeability.

T1 sequence (Q99836 whole entry): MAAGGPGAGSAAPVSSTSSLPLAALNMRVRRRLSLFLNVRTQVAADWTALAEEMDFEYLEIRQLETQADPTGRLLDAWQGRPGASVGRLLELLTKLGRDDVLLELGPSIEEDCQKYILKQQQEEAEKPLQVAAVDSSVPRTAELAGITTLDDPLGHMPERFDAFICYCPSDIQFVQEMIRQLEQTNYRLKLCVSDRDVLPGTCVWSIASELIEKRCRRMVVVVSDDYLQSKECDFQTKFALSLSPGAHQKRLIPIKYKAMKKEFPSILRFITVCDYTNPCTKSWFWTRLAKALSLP
MyD88, sequence (Q99836 whole entry, species assumed): as the sequence (Q99836 whole entry) above

Row | MyD88 dimerization (Flag-MyD88 co-precipitated with HA-MyD88) (MyD88 dimerization) | block of NFkB activation (NFkB activation) | peptide stability on addition of myristoyl group (MyD88) | Compound | proliferation of OCI-Ly3 cells [1]
1 | at least as active as 4×4MyDI | greater activity than the 4×4MyDI |  | Myr-4×4MyDI: 4×4MyDI backbone cyclic peptide with a myristoyl group (formula V) (Myristoyl-[Nlys]RDVL[Nlys]GT; bridge 1-6 via CO) | specifically blocked proliferation
2 |  |  | without affecting peptide stability | CCCCCCCCCCCCCC(=O)N[C@@H](CCCNC(=N)N)C(=O)N[C@@H](CC(=O)O)C(=O)N[C@H](C(=O)N[C@@H](CC(C)C)C(=O)N1CCC[C@H]1C(=O)NCC(=O)N[C@H](C(=O)O)[C@@H](C)O)C(C)C (Myristoyl-RDVLPGT-OH; N-terminus and C-terminus assumed) | 
